Laboratory results published in patent US20230139826A1 (NONO INC., priority 2020, published 2023).
Marks after values point to notes of the source that are not given here. Residues, ends and D or L forms follow the SMILES beside them.

What was measured:
[1] = In-vitro peptide degradation assay in rat plasma with rt-PA or TNK
Description: To determine nerinetide stability in the presence of rt-PA in plasma, we use an in-vitro peptide content analysis by HPLC. In brief, Nerinetide or D-Tat-L-2B9c were spiked into rat or human plasma at a concentration of 65 ug/ml. rt-PA was added after the baseline time-point was collected, at the specified concentrations. rt-PA administration followed the clinical dosing approach [10% bolus dose followed by 60-mins infusion (90% of the dose)], using a Harvard apparatus pump. Sample collection following IV bolus was performed at 5 min, 15 min, 30 min and 45 min post-dose. At each time point, approximately 100 uL of plasma was collected from each vial using a fresh syringe. Plasma was then collected and stored at -80° C. until analyzed.
Nerinetide or D-Tat-L2B9c was extracted by precipitation with 1M perchloric acid. All analyses were performed on an Agilent 1260 Infinity Quaternary LC System (Agilent Technologies, Santa Clara, Calif., USA) and on a 25 cm [YMAA12S052546WT] C-18 RP-HPLC column (Agilent Technologies, Santa Clara, Calif., USA). The column was equilibrated with 10% acetonitrile with 0.1% TFA at 40° C. The eluent flow was 1.5 ml/min (gradient from 10% to 35% acetonitrile in 0.1% TFA) The UV trace was recorded at 220 nm. Concentrations of nerinetide or D-Tat-L-2B9c were derived from calibration standards obtained by spiking the agent into plasma.

[2] = tested on: transient middle cerebral artery occlusion (tMCAO); experiment: Rat transient middle cerebral artery occlusion model
Description: Nerinetide and lodoxamide was administered to rats intravenously as a bolus injection, 60 minutes after tMCAo. […] Bars in A and represent mean±SD, with all individual data points plotted. Asterisks in A indicate P<0.01 when compared to the vehicle group (one-way ANOVA post hoc Tukey's correction for multiple comparisons test) N=12-14 animals/group. […] Significant differences are indicated with an asterisk when compared to the vehicle group (Kruskal-Wallis analysis of variance on ranks with a post-hoc Dunn's correction for multiple comparisons test, *P<0.01). Vehicle: PBS alone. Scrambled: ADA peptide incapable of binding PSD-95.
All animals subjected to surgery had their physiological parameters measured prior to MCA occlusion. PE-50 polyethylene tubing was inserted into the right femoral artery for invasive monitoring of mean arterial blood pressure and for obtaining blood samples to measure blood gases (pH, PaO2, and PaCO2), electrolytes (Na^+, K^+, iCa) and plasma glucose at baseline [Blood gas cartridge CG8+, VetScan i-STAT 1 Analyzer].
Infarct volumes and hemispheric swelling were evaluated at 24 hours post-stroke from standard brain slices stained with 2% 2,3,5-triphenyltetrazolium chloride (Sigma Aldrich, St. Louis, Md., USA)(7). Neurologic scoring was conducted at 24 hours after stroke onset using forelimb-placing tests comprising of frontal visual placing, sideways visual placing, frontal tactile placing, sideways tactile placing, and vertical tactile placing (scores range from 0-2 in each component for a maximum of 12 indicating maximum impairment.

acute ischemic stroke = experiment: ESCAPE-NA1 trial: efficacy of intravenous nerinetide in patients with acute ischemic stroke undergoing thrombectomy; format: in vivo, human
Description: ESCAPE-NA1 was a multicenter, randomized, double-blinded, placebo-controlled, parallel group, single-dose study to determine the efficacy and safety of intravenous nerinetide in patients with acute ischemic stroke who were selected to undergo thrombectomy. Patients were randomized in a 1:1 ratio to receive a single, 2.6 mg/kg (up to a maximum dose of 270 mg) intravenous dose of nerinetide or saline placebo delivered over 10+1 minutes. Nerinetide and placebo were prepared as colorless solutions in numbered, refrigerated vials.
Randomization in a 1:1 ratio to nerinetide or placebo occurred using a real-time, dynamic, Internet-based, stratified randomized minimization procedure. Stratification occurred on the use of intravenous alteplase (yes/no) and declared initial thrombectomy device (stent-retriever or aspiration device). The choice to stratify was based upon the possibility of drug-drug or drug-device interactions. Randomized minimization occurring within strata aimed to achieve distribution balance with regard to age, sex, baseline National Institutes of Health Stroke Scale (NIHSS) score (range, 0 to 42, with higher scores indicating greater stroke severity), site of arterial occlusion, baseline Alberta Stroke Program Early Computed Tomography Score (ASPECTS; range, 0 to 10, with 1 point subtracted for any evidence of early ischemic change in each defined region on the CT scan) and clinical site.
Eligible patients were adults aged 18 or greater with a disabling ischemic stroke at the time of randomization (baseline NIHSS>5), who had been functioning independently in the community (Barthel Index score>90 [range, 0 to 100, with higher scores indicating a greater ability to complete activities of daily living])^1 before the stroke. Enrollment occurred up to 12 hours after the onset of stroke symptoms (last-seen-well time). Non-contrast CT and multiphase CTA were performed at the thrombectomy center to identify patients with a confirmed proximal intracranial artery occlusion, defined as the intracranial internal carotid artery or the first segment of the middle cerebral artery or both.
After qualifying imaging, patients were treated with rapid EVT using currently available devices. Some patients received intravenous alteplase according to usual care following national or regional guidelines, before or during EVT, at a primary hospital prior to transfer or at the endovascular center. Interpretation of treatment guidelines was at the discretion of the treating team. Patients treated with alteplase more than 4.5 hours from stroke onset were not excluded from the trial for this reason alone. Patients had to meet inclusion and exclusion criteria at the EVT hospital. Patients received trial drug, as a single dose of 2.6 mg/kg to a maximum dose of 270 mg, based upon estimated or actual weight (if known) using a dedicated intravenous line. The trial drug was administered as soon as possible after randomization.
Time targets were imaging to randomization 30 minutes, imaging to study drug administration ≤60 minutes, and imaging to arterial access/puncture ≤60 minutes. Targets from imaging to reperfusion were 90th percentile ≤90 minutes and a median at ≤75 minutes. In general, the order of events was imaging to determine eligibility for EVT treatment, study randomization, administration of alteplase (in some patients), administration of nerinetide, and performance of EVT.
The primary outcome was good outcome as defined by a score of 0-2 on the modified Rankin scale (mRS) (range, 0 [no symptoms] to 6 [death]) for the assessment of neurologic functional disability^2 assessed in person or, if an in-person visit was not possible, by telephone, at 90 days after randomization by personnel certified in the scoring of the mRS. […]

[3] = Alteplase stratum, nerinetide n = 330
[4] = No Alteplase stratum, nerinetide n = 219
[5] = No Alteplase stratum, nerinetide n = 219, missing imputed as deaths
[6] = all patients (ITT), nerinetide vs placebo, 90 days
[7] = all patients, nerinetide group n = 549, 90 days
[8] = all patients, nerinetide vs placebo

CC[C@H](C)[C@H](NC(=O)[C@H](CO)NC(=O)[C@H](CO)NC(=O)[C@H](CC(C)C)NC(=O)[C@H](CCCCN)NC(=O)[C@H](CCCN=C(N)N)NC(=O)[C@H](CCCN=C(N)N)NC(=O)[C@H](CCCN=C(N)N)NC(=O)[C@H](CCC(N)=O)NC(=O)[C@H](CCCN=C(N)N)NC(=O)[C@H](CCCN=C(N)N)NC(=O)[C@H](CCCCN)NC(=O)[C@H](CCCCN)NC(=O)[C@H](CCCN=C(N)N)NC(=O)CNC(=O)[C@@H](N)Cc1ccc(O)cc1)C(=O)N[C@@H](CCC(=O)O)C(=O)N[C@@H](CO)C(=O)N[C@@H](CC(=O)O)C(=O)N[C@H](C(=O)O)C(C)C [Nerinetide] (H-YGRKKRRQRRRKLSSIESDV-OH)
nerinetide content in rat plasma on addition of alteplase ([1]; 65 ug/ml nerinetide, 37° C., alteplase over 60 minutes): reduced the nerinetide content in rat plasma in a concentration-dependent manner | elimination in rat plasma with tenecteplase (TNK) ([1]; TNK 37.5 ug/ml): rapid elimination | stability alone in rat plasma ([1]; absence of alteplase): stable | degradation in rat plasma with alteplase ([1]; rt-PA 135 ug/ml): rapid degradation | neurological function 24 hours after tMCAo ([2]; doses as low as 0.25 mg/kg): improvement | infarct volume 24 hours after tMCAo ([2]; doses as low as 0.25 mg/kg, vs vehicle): significant reduction | efficacy in tMCAo ([2]; doses of as little as 0.025 mg/kg): effective | efficacy in tMCAo ([2]; doses up to at least 25 mg/kg): effective | reducing infarction volume, hemispheric swelling and improving neurological scores ([2]; rat tMCAO, comparison of the two peptides): equally effective | dose with the highest efficacy ([2]; rat tMCAo dose-response): about 15 mg/kg | effective dosage range (reducing infarction size and neurologic deficit) ([2]; rat tMCAo, iv bolus 60 minutes after tMCAo, with lodoxamide): 0.025-25 mg/kg | BI 95-100, unadjusted RR (CI95) (acute ischemic stroke; Alteplase stratum): 0.96 (0.86-1.07) | Deaths without imputation, RR (acute ischemic stroke; Alteplase stratum): 1.24 | Infarct volume (cubic root transformation), beta coefficient (acute ischemic stroke; Alteplase stratum): 0.20 (−0.56 to 0.95)** ml^1/3 | Infarct volume (median) (acute ischemic stroke; Alteplase stratum): 22.7 mL | Mortality, unadjusted RR (CI95) (acute ischemic stroke; Alteplase stratum): 1.14 (0.74-1.76) | NIHSS 0-2, unadjusted RR (CI95) (acute ischemic stroke; Alteplase stratum): 0.92 (0.81-1.04) | mRS 0-1, unadjusted RR (CI95) (acute ischemic stroke; Alteplase stratum): 0.92 (0.77-1.10) | mRS 0-2, unadjusted RR (CI95) (acute ischemic stroke; Alteplase stratum): 0.96 (0.85-1.07) | BI 95-100, adjusted risk ratio (95% confidence interval) (acute ischemic stroke; Alteplase stratum (n = 659)): 0.97 (0.88-1.08) | Mortality, adjusted risk ratio (95% confidence interval) (acute ischemic stroke; Alteplase stratum (n = 659)): 1.08 (0.70-1.66) | NIHSS 0-2, adjusted risk ratio (95% confidence interval) (acute ischemic stroke; Alteplase stratum (n = 659)): 0.92 (0.82-1.04) | mRS 0-1, adjusted risk ratio (95% confidence interval) (acute ischemic stroke; Alteplase stratum (n = 659)): 0.91 (0.78-1.08) | mRS 0-2, adjusted risk ratio (95% confidence interval) (acute ischemic stroke; Alteplase stratum (n = 659), nerinetide vs placebo, 90 days): 0.97 (0.87-1.08) | mRS 0-2, adjusted risk ratio (95% confidence interval) (acute ischemic stroke; Alteplase stratum (n = 659), nerinetide vs placebo, 90 days, listed as nerinetide): 0.97 | BI 95-100, patients number (proportion) (acute ischemic stroke; [3]): 213 (64.5%) | Mortality, patients number (proportion) (acute ischemic stroke; [3]): 39 (11.8%) | NIHSS 0-2, patients number (proportion) (acute ischemic stroke; [3]): 191 (57.9%) | mRS 0-1, patients number (proportion) (acute ischemic stroke; [3]): 138 (41.8%) | mRS 0-2, patients number (proportion) (acute ischemic stroke; [3]): 207 (62.7%) | mRS 0-2, patients number (proportion) (acute ischemic stroke; Alteplase stratum, nerinetide n = 330, listed as nerinetide): 62.7% | Infarct volume, absolute volume difference of medians (acute ischemic stroke; Alteplase stratum, nerinetide vs placebo): 1.6* ml | BI 95-100, unadjusted RR (CI95) (acute ischemic stroke; No Alteplase stratum): 1.16 (0.98-1.38) | Deaths without imputation, RR (acute ischemic stroke; No Alteplase stratum): 0.60 | Infarct volume (cubic root transformation), beta coefficient (acute ischemic stroke; No Alteplase stratum): −0.98 (−1.91 to −0.05)** ml^1/3 | Infarct volume (median) (acute ischemic stroke; No Alteplase stratum): 26.7 mL | Mortality, unadjusted RR (CI95) (acute ischemic stroke; No Alteplase stratum): 0.63 (0.41-0.97) | NIHSS 0-2, unadjusted RR (CI95) (acute ischemic stroke; No Alteplase stratum): 1.18 (1.00-1.40) | mRS 0-1, unadjusted RR (CI95) (acute ischemic stroke; No Alteplase stratum): 1.13 (0.88-1.45) | mRS 0-2, unadjusted RR (CI95) (acute ischemic stroke; No Alteplase stratum): 1.19 (1.01-1.41) | BI 95-100, adjusted risk ratio (95% confidence interval) (acute ischemic stroke; No Alteplase stratum (n = 446)): 1.14 (0.97-1.34) | Mortality, adjusted risk ratio (95% confidence interval) (acute ischemic stroke; No Alteplase stratum (n = 446)): 0.66 (0.44-0.99) | NIHSS 0-2, adjusted risk ratio (95% confidence interval) (acute ischemic stroke; No Alteplase stratum (n = 446)): 1.14 (0.97-1.34) | mRS 0-1, adjusted risk ratio (95% confidence interval) (acute ischemic stroke; No Alteplase stratum (n = 446)): 1.04 (0.82-1.31) | mRS 0-2, adjusted risk ratio (95% confidence interval) (acute ischemic stroke; No Alteplase stratum (n = 446), nerinetide vs placebo, 90 days): 1.18 (1.01-1.38) | mRS 0-2, adjusted risk ratio (95% confidence interval) (acute ischemic stroke; No Alteplase stratum (n = 446), nerinetide vs placebo, 90 days, listed as nerinetide): 1.18 | BI 95-100, number of patients (acute ischemic stroke; [4]): 128 | BI 95-100, proportion of patients (acute ischemic stroke; [4]): (58.4%) | NIHSS 0-2, number of patients (acute ischemic stroke; [4]): 129 | NIHSS 0-2, proportion of patients (acute ischemic stroke; [4]): (58.9%) | mRS 0-1, number of patients (acute ischemic stroke; [4]): 84 | mRS 0-1, proportion of patients (acute ischemic stroke; [4]): (38.4%) | mRS 0-2, number of patients (acute ischemic stroke; [4]): 130 | mRS 0-2, proportion of patients (acute ischemic stroke; [4]): (59.3%) | Mortality, number of patients (acute ischemic stroke; [5]): 28 | Mortality, proportion of patients (acute ischemic stroke; [5]): (12.8%) | mRS 0-2, proportion of patients (acute ischemic stroke; No Alteplase stratum, nerinetide n = 219, listed as nerinetide): 59.3% | Infarct volume, absolute volume difference of medians (acute ischemic stroke; No Alteplase stratum, nerinetide vs placebo): −12.5* ml | mRS 0-2, adjusted risk ratio (95% confidence interval) (acute ischemic stroke; all patients (ITT), nerinetide 2.6 mg/kg iv vs placebo, 90 days): 1.04 (0.96-1.14) | mRS 0-2, adjusted risk ratio (95% confidence interval) (acute ischemic stroke; all patients (ITT), nerinetide 2.6 mg/kg iv vs placebo, 90 days, listed as nerinetide): 1.04 | BI 95-100, adjusted risk ratio (95% confidence interval) (acute ischemic stroke; [6]): 1.03 (0.94-1.12) | Mortality, adjusted risk ratio (95% confidence interval) (acute ischemic stroke; [6]): 0.84 (0.63-1.13) | NIHSS 0-2, adjusted risk ratio (95% confidence interval) (acute ischemic stroke; [6]): 1.01 (0.92-1.11) | mRS 0-1, adjusted risk ratio (95% confidence interval) (acute ischemic stroke; [6]): 0.98 (0.85-1.12) | Infarct volume (median) (acute ischemic stroke; all patients, 24-hour imaging): 23.7 mL | Infarct volume (median) (acute ischemic stroke; all patients, 24-hour imaging, listed as nerinetide): 26.0 (iqr 6.6-101.5) ml | BI 95-100, patients number (proportion) (acute ischemic stroke; [7]): 341 (62.1%) | NIHSS 0-2, patients number (proportion) (acute ischemic stroke; [7]): 320 (58.3%) | mRS 0-1, patients number (proportion) (acute ischemic stroke; [7]): 222 (40.4%) | mRS 0-2, patients number (proportion) (acute ischemic stroke; [7]): 337 (61.4%) | Mortality, patients number (proportion) (acute ischemic stroke; all patients, nerinetide group n = 549, 90 days, missing outcomes imputed as deaths): 67 (12.2%) | mRS 0-2, patients number (proportion) (acute ischemic stroke; all patients, nerinetide group n = 549, 90 days, listed as nerinetide): 61.4% | Infarct volume (cubic root transformation), adjusted beta coefficient (acute ischemic stroke; all patients, nerinetide vs control, 24-hour imaging): −0.29 (−0.87 to 0.30)** ml^1/3 | BI 95-100, unadjusted RR (CI95) (acute ischemic stroke; [8]): 1.03 (0.94-1.13) | Deaths without imputation, RR (acute ischemic stroke; [8]): 0.87 | Infarct volume, absolute volume difference of medians (acute ischemic stroke; [8]): −2.3* ml | NIHSS 0-2, unadjusted RR (CI95) (acute ischemic stroke; [8]): 1.01 (0.92-1.12) | mRS 0-1, unadjusted RR (CI95) (acute ischemic stroke; [8]): 0.99 (0.86-1.15) | mRS 0-2, unadjusted RR (CI95) (acute ischemic stroke; [8]): 1.04 (0.94-1.14) | Mortality, unadjusted RR (CI95) (acute ischemic stroke; all patients, nerinetide vs placebo, missing imputed as deaths): 0.85 (0.63-1.15) | Infarct volume, mean (acute ischemic stroke; alteplase group): 73.3 mL | Infarct volume, mean (acute ischemic stroke; no alteplase group): 67.8 mL | Number-needed-to-treat (acute ischemic stroke; no-alteplase stratum): 10-11 patients | absolute benefit (acute ischemic stroke; no-alteplase stratum): 9.4% | absolute risk reduction in mortality at 90 days (acute ischemic stroke; stratum that did not receive alteplase): 7.5% | hazard of death, adj HR (acute ischemic stroke; stratum that did not receive alteplase, Cox model): 0.56
